Source: patent publication US9523108B2, “Thermostable β-xylosidase” (HONDA MOTOR CO., LTD., priority 2014, dated 2016)

Assays:
[1] = tested on: thermostable β-xylosidase OJ1M-273-1 (GH3 family), SEQ ID NO: 2, from hot spring soil metagenome OJ1, expressed in E. coli, purified; assay: Kinetics of PNP substrate hydrolysis by OJ1M-273-1 β-xylosidase; format: biochemical; conditions: 105° C., pH 5 acetate buffer; for Vmax (maximum initial rate of hydrolysis) / Km: 10 min, enzyme diluted to 0.01 mg/mL, Michaelis-Menten fit; for Km: read-out: Km (Michaelis constant); for Kcat/Km (catalytic efficiency): calculated from fitted Vmax and Km
Description: The gene recombinant E. coli homogeneous supernatant was loaded onto an ion exchange column HiTrap Q HP (manufactured by GE Healthcare, Inc.) equilibrated with a 50 mM Tris-HCl buffer (pH 8.0), and a medium-high pressure liquid chromatography system AKTA design (manufactured by GE Healthcare, Inc.) was used to fractionate proteins with a concentration gradient of 0 to 50% in a 50 mM Tris-HCl buffer (pH 8.0) containing 1 M of NaCl. […] The fractions with β-xylosidase activity following the buffer exchange were loaded onto a hydrophobic interaction separation column HiTrap Phenyl HP (manufactured by GE Healthcare, Inc.) equilibrated with the same buffer solution, and the proteins were fractionated with a concentration gradient of 0 to 100% in a 50 mM Tris-HCl buffer (pH 8.0). […] The concentrated sample was loaded onto a gel filtration column Hiload 26/60 superdex 200 pg (manufactured by GE Healthcare, Inc.) equilibrated with a 50 mM Tris-HCl buffer (pH 8.0) containing 150 mM of NaCl, and was fractionated by passing a volume of the same buffer equivalent to 1 to 1.5 times the column volume through the column at a flow rate of 2 to 3 mL/min.
PNPX was used as the substrate for measuring the β-xylosidase activity. A solution prepared by dissolving PNPX (manufactured by Sigma-Aldrich Co. LLC.) in water to obtain a prescribed final concentration was used as the substrate solution. The PNPX substrate solutions used in the experiments described below all used aqueous solutions of PNPX prepared by the above method. In the measurements, a solution prepared by diluting the purified enzyme obtained in section <6> above with a 0.05 M Tris-HCl buffer (pH 8.0) to obtain a concentration of 0.1 to 0.01 mg/mL was used.
The reaction solution was composed of 6 μL of the diluted purified enzyme, 294 μL of purified water, 150 μL of a 200 mM acetate buffer (pH 5), and 150 μL of a 20 mM PNPX aqueous solution.
The reaction was performed at 60° C. to 115° C. for 10 minutes using a ReactiTherm (manufactured by Thermo Fisher Scientific Inc.). A glass vial with a volume of 1.5 mL was used as the reaction vessel, and the inside of the vial was pre-coated with a 1.5% by mass aqueous solution of BSA in order to suppress enzyme protein adsorption. In all measurements, a mixed solution prepared by replacing the gene recombinant E. coli homogenous supernatant or the purified enzyme with a 50 mM Tris-HCl buffer (pH 8.0) and then reacting the solution under the same conditions was used as a control. Further, the mixed solution containing the enzyme (the gene recombinant E. coli homogenous supernatant or the purified enzyme), the purified water and the buffer was held at the reaction temperature for five minutes (pre-incubation), the substrate solution was then added, and the reaction was performed. In each case, following completion of the 10-minute reaction, the reaction was halted by adding a 0.2 M Na2CO3 solution to the reaction solution in a volume equal to that of the mixed solution, and the resulting mixture was then centrifuged for 5 minutes to obtain a supernatant. The amount of p-nitrophenol in the supernatant was determined by measuring the absorbance at 420 nm using a spectrophotometer, calculating the amount of p-nitrophenol in the supernatant using a calibration curve prepared with p-nitrophenol, and then determining the amount of p-nitrophenol produced by the enzymatic hydrolysis on the basis of the difference from the control. The enzymatic activity for producing 1 μmol of p-nitrophenol per minute was defined as 1 U, and the value obtained by dividing this activity by the amount of protein was defined as the specific activity (U/mg). Each measurement was performed for three independent experiments, and a mean value and a standard error were determined.
The maximum initial rate (Vmax) of hydrolysis, the Michaelis constant (Km) and the catalytic efficiency (Kcat/Km) were investigated for PNP substrate hydrolysis by OJ1M-273-1. […]

[2] = tested on: thermostable 1-xylosidase having an optimum temperature of 95° C. (Non-Patent Document 7, Shi et al., 2013); conditions: PNPX as substrate; cited from earlier work

Row | SMILES | Vmax (maximum initial rate of hydrolysis) [1] | Km [1] | Kcat/Km (catalytic efficiency) [1] | catalytic efficiency Kcat/Km [2]
1 | O=[N+]([O-])c1ccc(O[C@@H]2O[C@@H](CO)[C@H](O)[C@H]2O)cc1 [PNPAF, p-nitrophenyl-α-L-arabinofuranoside] | 914.5 U/mg | 13.7 mM | 87700 M⁻¹ s⁻¹ | –
2 | O=[N+]([O-])c1ccc(O[C@@H]2OC[C@H](O)[C@H](O)[C@H]2O)cc1 [PNPAP, p-nitrophenyl-α-L-arabinopyranoside] | 838.5 U/mg | 20.6 mM | 53600 M⁻¹ s⁻¹ | –
3 | O=[N+]([O-])c1ccc(O[C@@H]2OC[C@@H](O)[C@H](O)[C@H]2O)cc1 [PNPX, p-nitrophenyl-β-D-xylopyranoside] | 86.0 U/mg | 0.44 mM | 259800 M⁻¹ s⁻¹ | 1.1734e+06 M⁻¹ s⁻¹
